Measured values as given in PubChem BioAssay (NCI).
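Interpolation was linear, between the two tested concentrations surrounding the appropriate level; five concentrations were tested over 48 hours in 96-well plates. TGI: total growth inhibition.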

How the values were obtained:
Assay in all cases: NCI anticancer screen, dose series, 48 h
SR leukemia = tested on: SR leukemia
SNB-78 CNS = tested on: SNB-78 CNS
HOP-18 NSCLC = tested on: HOP-18 NSCLC
UO-31 renal = tested on: UO-31 renal
M14 melanoma = tested on: M14 melanoma
U251 CNS = tested on: U251 CNS
MOLT-4 leukemia = tested on: MOLT-4 leukemia
DMS 114 small cell lung = tested on: DMS 114 small cell lung
SF-268 CNS = tested on: SF-268 CNS
SK-MEL-28 melanoma = tested on: SK-MEL-28 melanoma
OVCAR-5 ovarian = tested on: OVCAR-5 ovarian
NCI-H460 lung = tested on: NCI-H460 lung
UACC-257 melanoma = tested on: UACC-257 melanoma
MALME-3M melanoma = tested on: MALME-3M melanoma
A549 NSCLC = tested on: A549 NSCLC
HT29 colon = tested on: HT29 colon
SNB-75 CNS = tested on: SNB-75 CNS
EKVX NSCLC = tested on: EKVX NSCLC
SF-539 CNS = tested on: SF-539 CNS
SK-OV-3 ovarian = tested on: SK-OV-3 ovarian
ACHN renal = tested on: ACHN renal
SF-295 CNS = tested on: SF-295 CNS
OVCAR-3 ovarian = tested on: OVCAR-3 ovarian
M19-MEL melanoma = tested on: M19-MEL melanoma
RPMI-8226 leukemia = tested on: RPMI-8226 leukemia
DMS 273 small cell lung = tested on: DMS 273 small cell lung
OVCAR-4 ovarian = tested on: OVCAR-4 ovarian
HOP-92 NSCLC = tested on: HOP-92 NSCLC
KM12 colon = tested on: KM12 colon
HCT-15 colon = tested on: HCT-15 colon
NCI-H226 lung = tested on: NCI-H226 lung
HOP-62 NSCLC = tested on: HOP-62 NSCLC
KM20L2 colon = tested on: KM20L2 colon
HCT-116 colon = tested on: HCT-116 colon
SN12C renal = tested on: SN12C renal
A498 renal = tested on: A498 renal
RXF-631 renal = tested on: RXF-631 renal
LXFL 529 NSCLC = tested on: LXFL 529 NSCLC
IGROV1 ovarian = tested on: IGROV1 ovarian
SK-MEL-5 melanoma = tested on: SK-MEL-5 melanoma
HL-60(TB) leukemia = tested on: HL-60(TB) leukemia
CAKI-1 renal = tested on: CAKI-1 renal
786-0 renal = tested on: 786-0 renal
SW-620 colon = tested on: SW-620 colon
SK-MEL-2 melanoma = tested on: SK-MEL-2 melanoma
NCI-H23 lung = tested on: NCI-H23 lung
DLD-1 colon = tested on: DLD-1 colon
K-562 leukemia = tested on: K-562 leukemia
COLO 205 colon = tested on: COLO 205 colon
NCI-H522 lung = tested on: NCI-H522 lung
SNB-19 CNS = tested on: SNB-19 CNS
OVCAR-8 ovarian = tested on: OVCAR-8 ovarian
XF 498 CNS = tested on: XF 498 CNS
UACC-62 melanoma = tested on: UACC-62 melanoma
LOX IMVI melanoma = tested on: LOX IMVI melanoma
HCC-2998 colon = tested on: HCC-2998 colon

## COc1ccc2c(c1)[n+]([O-])c(-c1ccc(Cl)c(Cl)c1)c(N)[n+]2[O-]
SR leukemia
  TGI: > 100 µM
SNB-78 CNS
  TGI: > 100 µM
HOP-18 NSCLC
  TGI: > 100 µM
UO-31 renal
  TGI: > 100 µM
M14 melanoma
  TGI: 72.2 µM
U251 CNS
  TGI: > 100 µM
MOLT-4 leukemia
  TGI: > 100 µM
DMS 114 small cell lung
  TGI: 32.1 µM
SF-268 CNS
  TGI: > 100 µM
SK-MEL-28 melanoma
  TGI: > 100 µM
OVCAR-5 ovarian
  TGI: > 100 µM
NCI-H460 lung
  TGI: > 100 µM
UACC-257 melanoma
  TGI: 46.4 µM
MALME-3M melanoma
  TGI: 58.5 µM
A549 NSCLC
  TGI: > 100 µM
HT29 colon
  TGI: > 100 µM
SNB-75 CNS
  TGI: > 100 µM
EKVX NSCLC
  TGI: > 100 µM
SF-539 CNS
  TGI: 68.6 µM
SK-OV-3 ovarian
  TGI: > 100 µM
ACHN renal
  TGI: > 100 µM
SF-295 CNS
  TGI: > 100 µM
OVCAR-3 ovarian
  TGI: 68 µM
M19-MEL melanoma
  TGI: > 100 µM
RPMI-8226 leukemia
  TGI: > 100 µM
DMS 273 small cell lung
  TGI: 66.7 µM
OVCAR-4 ovarian
  TGI: > 100 µM
HOP-92 NSCLC
  TGI: > 100 µM
KM12 colon
  TGI: > 100 µM
HCT-15 colon
  TGI: > 100 µM
NCI-H226 lung
  TGI: > 100 µM
HOP-62 NSCLC
  TGI: > 100 µM
KM20L2 colon
  TGI: > 100 µM
HCT-116 colon
  TGI: > 100 µM
SN12C renal
  TGI: > 100 µM
A498 renal
  TGI: > 100 µM
RXF-631 renal
  TGI: 82.3 µM
LXFL 529 NSCLC
  TGI: > 100 µM
IGROV1 ovarian
  TGI: 93.2 µM
SK-MEL-5 melanoma
  TGI: 31.5 µM
HL-60(TB) leukemia
  TGI: 61 µM
CAKI-1 renal
  TGI: > 100 µM
786-0 renal
  TGI: > 100 µM
SW-620 colon
  TGI: > 100 µM
SK-MEL-2 melanoma
  TGI: > 100 µM
NCI-H23 lung
  TGI: 30.9 µM
DLD-1 colon
  TGI: > 100 µM
K-562 leukemia
  TGI: > 100 µM
COLO 205 colon
  TGI: 33.6 µM
NCI-H522 lung
  TGI: 27.6 µM
SNB-19 CNS
  TGI: > 100 µM
OVCAR-8 ovarian
  TGI: > 100 µM

## C[C@@H]1CC2(N=CCS2)[C@]2(O)O[C@@H]3C[C@@]4(C)[C@H](C[C@H]3O[C@@H]2O1)C[C@H]1O[C@]12[C@@H]4[C@H](O)C(=O)[C@]1(C)C(C3=CC(=O)OC3)CC[C@]21O (stereo not given in full)
SR leukemia
  TGI: 0.015 µM
SNB-78 CNS
  TGI: 0.0495 µM
UO-31 renal
  TGI: 0.0755 µM
M14 melanoma
  TGI: 0.0497 µM
XF 498 CNS
  TGI: 0.0336 µM
UACC-62 melanoma
  TGI: 0.0511 µM
SF-268 CNS
  TGI: 0.0146 µM
SK-MEL-28 melanoma
  TGI: 0.089 µM
MALME-3M melanoma
  TGI: 0.0285 µM
SNB-75 CNS
  TGI: 0.0984 µM
SF-539 CNS
  TGI: 0.0122 µM
SK-OV-3 ovarian
  TGI: 0.0778 µM
ACHN renal
  TGI: 0.0149 µM
M19-MEL melanoma
  TGI: 0.0784 µM
RPMI-8226 leukemia
  TGI: 0.0578 µM
DMS 273 small cell lung
  TGI: 0.0214 µM
HOP-92 NSCLC
  TGI: 0.08 µM
NCI-H226 lung
  TGI: 0.0746 µM
HOP-62 NSCLC
  TGI: 0.0211 µM
HCT-116 colon
  TGI: 0.0301 µM
LOX IMVI melanoma
  TGI: 0.0239 µM
SN12C renal
  TGI: 0.0202 µM
A498 renal
  TGI: 0.0386 µM
RXF-631 renal
  TGI: 0.102 µM
LXFL 529 NSCLC
  TGI: 0.0166 µM
IGROV1 ovarian
  TGI: 0.159 µM
HL-60(TB) leukemia
  TGI: 0.0353 µM
CAKI-1 renal
  TGI: 0.0265 µM
786-0 renal
  TGI: 0.0179 µM
SK-MEL-2 melanoma
  TGI: 0.0749 µM
HCC-2998 colon
  TGI: 0.0727 µM
DLD-1 colon
  TGI: 0.0216 µM
COLO 205 colon
  TGI: 0.0828 µM
